Measurements from patent US20130324522A1, “INSECT ODORANT RECEPTOR ANTAGONISTS” (THE ROCKEFELLER UNIVERSITY, priority 2010, published 2013).
Where two headings read alike, the source gives them in different places.

Columns and labels:
Assay type in all cases: cell-based
Or47a/Or83b = target: T1, Or47a/Or83b (Drosophila melanogaster, UniProt P81921+Q9VNB5); experiment: Ca2+-imaging of stable Flip-In T-Rex cell line Or47a/Or83b; conditions: for inhibition at 4 µM: read-out: Percent Inhibition OR47a OR83b; for IC50: read-out: IC50 OR47a
T1 construct: Full-length cDNAs for mosquito (Anopheles gambiae) odorant receptor (OR1, OR2, OR7, OR8, OR28), and fly (Drosophila melanogaster) odorant receptor (Or47a, Or83b); expressed in transfected cells
T1 sequence (P81921 1-385): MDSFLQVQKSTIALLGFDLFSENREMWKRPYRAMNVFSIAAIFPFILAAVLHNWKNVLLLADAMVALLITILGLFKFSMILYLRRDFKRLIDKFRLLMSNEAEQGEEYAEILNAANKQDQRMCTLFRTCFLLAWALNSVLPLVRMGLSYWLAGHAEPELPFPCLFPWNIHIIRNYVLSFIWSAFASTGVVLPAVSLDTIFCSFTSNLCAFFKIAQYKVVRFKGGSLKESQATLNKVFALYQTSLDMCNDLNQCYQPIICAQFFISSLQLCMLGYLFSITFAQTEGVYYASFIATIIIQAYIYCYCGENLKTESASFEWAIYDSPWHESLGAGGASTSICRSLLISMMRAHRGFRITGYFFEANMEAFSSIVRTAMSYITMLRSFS
T1 sequence (Q9VNB5 1-486): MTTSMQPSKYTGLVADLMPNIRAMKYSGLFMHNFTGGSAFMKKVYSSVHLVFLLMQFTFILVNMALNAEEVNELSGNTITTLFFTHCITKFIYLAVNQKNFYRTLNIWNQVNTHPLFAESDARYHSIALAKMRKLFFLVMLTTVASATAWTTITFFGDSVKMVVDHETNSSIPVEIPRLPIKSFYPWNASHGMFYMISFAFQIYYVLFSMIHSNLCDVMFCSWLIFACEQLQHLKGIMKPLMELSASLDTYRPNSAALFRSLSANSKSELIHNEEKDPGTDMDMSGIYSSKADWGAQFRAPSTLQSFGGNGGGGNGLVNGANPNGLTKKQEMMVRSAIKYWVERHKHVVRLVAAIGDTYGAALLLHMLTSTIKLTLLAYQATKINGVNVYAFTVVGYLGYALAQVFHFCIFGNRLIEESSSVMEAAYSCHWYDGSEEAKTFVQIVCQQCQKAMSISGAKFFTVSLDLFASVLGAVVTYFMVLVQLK
Summary of the method: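 Flp-In T-REx stable lines (Drosophila Or47a/Or83b or mouse 5HT3), 10,000 cells/well cultured 2 days, induced with tetracycline 1 day before assay.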

TRP channel (TRPM8) = target: T2, TRP channel (TRPM8) (Mus musculus, UniProt Q8R4D5); experiment: Ca2+-imaging of stable HEK293T cell line TRPM8; conditions: HEK-293T; compound applied at 4 μM; read-out: Percent Inhibition TRPM8
T2 construct: Full-length cDNAs for mosquito (Anopheles gambiae) odorant receptor (OR1, OR2, OR7, OR8, OR28), and fly (Drosophila melanogaster) odorant receptor (Or47a, Or83b), mouse TRP channel (TRPM8); expressed in transfected cells
Summary of the method: (§1)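 Cells were HEK293T stably expressing mouse TRPM8 or a ligand-specific Anopheles OR plus OR7. Compounds were delivered in HBSS odorant solution.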

OR28/OR7 = OR28/OR7 (Anopheles gambiae, UniProt A0A1S4GFY3+Q7QCC7); experiment: Ca2+-imaging of stable HEK293T cell line OR28/OR7; conditions: for inhibition at 4 µM: HEK-293T, read-out: Percent Inhibition OR28 OR7
Summary of the method: as §1

Chain of OR28/OR7 (A0A1S4GFY3 entry or part of it): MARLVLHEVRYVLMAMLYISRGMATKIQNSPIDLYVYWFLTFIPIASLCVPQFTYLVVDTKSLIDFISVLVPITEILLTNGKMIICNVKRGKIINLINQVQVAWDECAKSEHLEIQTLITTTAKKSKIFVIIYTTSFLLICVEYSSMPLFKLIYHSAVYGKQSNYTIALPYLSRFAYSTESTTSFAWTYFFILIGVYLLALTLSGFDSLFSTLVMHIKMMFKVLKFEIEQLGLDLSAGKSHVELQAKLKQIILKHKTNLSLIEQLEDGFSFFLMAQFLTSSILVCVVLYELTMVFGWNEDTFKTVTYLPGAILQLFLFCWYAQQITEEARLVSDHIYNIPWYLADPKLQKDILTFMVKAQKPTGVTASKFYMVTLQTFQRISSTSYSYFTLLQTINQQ
Chain of OR28/OR7 (Q7QCC7 whole entry): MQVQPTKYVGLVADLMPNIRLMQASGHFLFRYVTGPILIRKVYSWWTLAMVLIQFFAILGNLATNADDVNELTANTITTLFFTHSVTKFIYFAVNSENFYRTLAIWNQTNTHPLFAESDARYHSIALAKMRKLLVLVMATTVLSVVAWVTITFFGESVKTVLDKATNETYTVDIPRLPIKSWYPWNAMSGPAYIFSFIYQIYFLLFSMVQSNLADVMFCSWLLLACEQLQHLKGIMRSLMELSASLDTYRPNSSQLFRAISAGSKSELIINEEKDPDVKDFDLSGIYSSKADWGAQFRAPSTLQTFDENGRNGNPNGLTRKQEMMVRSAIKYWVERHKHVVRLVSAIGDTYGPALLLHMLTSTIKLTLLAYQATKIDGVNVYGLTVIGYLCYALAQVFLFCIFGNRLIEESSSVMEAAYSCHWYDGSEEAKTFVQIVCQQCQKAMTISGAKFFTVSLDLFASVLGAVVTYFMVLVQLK
T2 sequence (Q8R4D5 whole entry): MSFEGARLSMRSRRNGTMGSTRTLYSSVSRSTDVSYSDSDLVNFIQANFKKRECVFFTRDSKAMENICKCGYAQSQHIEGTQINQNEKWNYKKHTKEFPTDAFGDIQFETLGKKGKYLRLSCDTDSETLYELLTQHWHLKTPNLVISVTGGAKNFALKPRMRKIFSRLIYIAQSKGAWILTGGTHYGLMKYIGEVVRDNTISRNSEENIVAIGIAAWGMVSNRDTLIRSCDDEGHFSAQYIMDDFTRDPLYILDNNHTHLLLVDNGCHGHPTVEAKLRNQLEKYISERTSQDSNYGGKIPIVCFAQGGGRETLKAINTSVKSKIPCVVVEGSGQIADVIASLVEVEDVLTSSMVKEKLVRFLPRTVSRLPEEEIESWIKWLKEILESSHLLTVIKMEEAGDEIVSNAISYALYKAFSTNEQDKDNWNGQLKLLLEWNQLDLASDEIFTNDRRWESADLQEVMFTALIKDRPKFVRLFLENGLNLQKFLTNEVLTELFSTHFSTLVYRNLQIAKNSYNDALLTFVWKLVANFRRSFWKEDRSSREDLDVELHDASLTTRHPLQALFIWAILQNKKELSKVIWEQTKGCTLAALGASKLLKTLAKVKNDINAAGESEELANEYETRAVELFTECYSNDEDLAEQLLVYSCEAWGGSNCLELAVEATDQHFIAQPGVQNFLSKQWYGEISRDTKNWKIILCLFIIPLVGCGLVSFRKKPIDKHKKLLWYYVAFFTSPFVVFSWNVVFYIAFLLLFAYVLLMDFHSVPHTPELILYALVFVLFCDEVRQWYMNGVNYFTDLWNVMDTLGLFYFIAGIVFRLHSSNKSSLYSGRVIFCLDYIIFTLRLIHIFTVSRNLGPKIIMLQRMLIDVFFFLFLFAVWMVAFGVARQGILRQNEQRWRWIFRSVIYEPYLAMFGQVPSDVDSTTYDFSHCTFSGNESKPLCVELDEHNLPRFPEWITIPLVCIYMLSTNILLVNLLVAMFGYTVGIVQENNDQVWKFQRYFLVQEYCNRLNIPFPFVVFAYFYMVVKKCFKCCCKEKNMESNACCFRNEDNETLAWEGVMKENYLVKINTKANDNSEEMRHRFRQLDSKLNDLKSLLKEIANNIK

SMILES	inhibition at 4 µM (Or47a/Or83b; compound applied at 4 μM) [%]	inhibition at 4 µM (TRP channel (TRPM8)) [%]	inhibition at 4 µM (OR28/OR7; compound applied at 4 μM) [%]	IC50 (OR28/OR7; Table B, read-out: IC50 OR28) [µM]	IC50 (Or47a/Or83b; Table B) [µM]	IC50 (Or47a/Or83b) [µM]	inhibition at 4 µM (Or47a/Or83b) [%]	IC50 (OR28/OR7) [µM]	inhibition at 4 µM (OR28/OR7) [%]
CCN(CC)C(=O)Oc1ccc2c(ccn2Cc2cccc(C)c2)c1NC(=O)[C@H](C)OC(C)=O [RU-0075468]	< 25	< 25	> 75	< 0.1	–	–	–	–	–
Cc1ccc(CN(Cc2ccc(F)cc2)C(=O)CN(C(=O)NC(C)(C)C)C2CC2)s1 [RU-0052360]	26 to 50	26 to 50	> 75	0.1 to 1	–	–	–	–	–
CCOc1ccccc1C(=O)NNC(=O)COc1cc(C)cc(C)c1 [RU-0023245]	> 75	< 25	> 75	> 1	> 1	–	–	–	–
COc1ccc(N2CCN(C(=O)C3CC=CCC3C(=O)NC(c3ccccc3)c3ccccn3)CC2)cc1 (stereo not drawn) [RU-0026507]	26 to 50	< 25	> 75	> 1	–	–	–	–	–
COc1ccc(N2CCN(C(=O)C3CC=CCC3C(=O)NCCCCc3ccccc3)CC2)cc1 (stereo not drawn) [RU-0026167]	51 to 74	26 to 50	51 to 74	< 0.1	> 1	–	–	–	–
COc1ccc(-c2nnc(SCc3ccc(C#N)cc3)n2-c2ccc(C)cc2)cc1 [RU-0046426]	26 to 50	< 25	> 75	> 1	–	–	–	–	–
COc1ccc(C(=O)c2ccccc2)c(O)c1O [RU-0001617]	51 to 74	< 25	51 to 74	> 1	> 1	–	–	–	–
COCCNC(=O)c1ccc(CSc2nnc(-c3ccc(C)cc3)n2-c2ccccc2F)cc1 [RU-0051652]	< 25	< 25	51 to 74	> 1	–	–	–	–	–
CCOCCCN(CC(=O)N(Cc1ccc2c(c1)OCO2)Cc1sccc1C)C(=O)NC(C)(C)C [RU-0052340]	26 to 50	< 25	> 75	< 0.1	–	–	–	–	–
COc1ccccc1N1CCN(C(=O)c2cc3n(n2)CCN(Cc2c(F)cccc2Cl)C3=O)CC1 [RU-0043595]	51 to 74	< 25	> 75	< 0.1	> 1	–	–	–	–
Cc1cc(C)c2c(c1C(=O)N1CCC3(CC1)C(=O)NCN3c1ccccc1)CC(C)(C)C2=O [RU-0025771]	–	26 to 50	> 75	–	–	> 1	> 75	–	–
COCCCN(CC(=O)N1CCc2sccc2C1COc1cccc(OC)c1)C(=O)Cc1ccccc1 (stereo not drawn) [RU-0036264]	< 25	26 to 50	51 to 74	0.1 to 1	–	–	–	–	–
Cc1ccc(-n2nc(C)c(CCC(=O)N3CCc4ccccc4C3)c2C)cc1Cl [RU-0026074]	51 to 74	26 to 50	> 75	–	> 1	–	–	–	–
COc1nc(NC(C)C)nc(NC(C)C)n1 [RU-0001534]	51 to 74	< 25	–	–	> 1	–	–	< 0.1	> 75
CC(NCc1ccccc1)c1nc2ccccc2c(=O)n1-c1ccc(Cl)cc1 (stereo not drawn) [RU-0072535]	26 to 50	< 25	> 75	< 0.1	–	–	–	–	–
Cc1ccc(CN(CCc2ccccc2)C(=O)CN(C(=O)NC(C)(C)C)C(C)C)o1 [RU-0072008]	26 to 50	< 25	> 75	< 0.1	–	–	–	–	–
CCOC(=O)C(c1ccc(OC)c(OC)c1)C1C=CC(NC(=O)c2ccc3c(c2)OCO3)C1 (stereo not drawn) [RU-0049030]	26 to 50	< 25	> 75	< 0.1	–	–	–	–	–
CC(NC(=O)c1cc2n(n1)CCN(Cc1c(Cl)cccc1Cl)C2=O)c1ccccc1 (stereo not drawn) [RU-0045115]	26 to 50	< 25	> 75	< 0.1	–	–	–	–	–
COCCCN(CC(=O)N1CCc2sccc2C1c1ccc(OC)cc1)C(=O)C(C)(C)CCl (stereo not drawn) [RU-0069950]	51 to 74	< 25	> 75	< 0.1	> 1	–	–	–	–
CCCCc1nc(CN2CCc3c([nH]c4ccccc34)C2c2cccc(OC)c2OC)c[nH]1 (stereo not drawn) [RU-0031879]	51 to 74	26 to 50	> 75	< 0.1	> 1	–	–	–	–
O=C1CN(S(=O)(=O)c2c(F)cc(F)cc2F)CC2c3cccc(F)c3CCN12 (stereo not drawn) [RU-0076832]	< 25	< 25	> 75	< 0.1	–	–	–	–	–
COc1cc(OC)cc(C2NC(=O)N(C)C3=C2C(=O)N(C2CCCCC2)C3)c1 (stereo not drawn) [RU-0047750]	26 to 50	< 25	> 75	> 1	–	–	–	–	–
COc1nc(OCC#N)nc(N2CCCCC2)n1 [RU-0006256]	51 to 74	26 to 50	> 75	< 0.1	> 1	–	–	–	–
CCOC(=O)C(c1cccc(OC)c1)C1C=CC(NC(=O)c2cccs2)C1 (stereo not drawn) [RU-0074560]	26 to 50	< 25	51 to 74	> 1	–	–	–	–	–
COC(=O)C(Cc1ccccc1)NC(=O)C1CC1(c1ccccc1)c1ccccc1 (stereo not drawn) [RU-0028029]	> 75	26 to 50	51 to 74	< 0.1	> 1	–	–	–	–
CN(Cc1ccccc1)C(=O)CCC1CCN(C(=O)CCOc2ccccc2)CC1 [RU-0028727]	> 75	26 to 50	> 75	< 0.1	< 0.1	–	–	–	–
CN(C)c1nc(N(C)C)nc(N(C)C)n1 [RU-0000619]	51 to 74	< 25	51 to 74	< 0.1	> 1	–	–	–	–
COCCCN(CC(=O)N1CCc2sccc2C1COc1cccc(OC)c1)C(=O)c1ccccc1OC (stereo not drawn) [RU-0036294]	51 to 74	26 to 50	> 75	0.1 to 1	–	–	–	–	–
